# Patent publication US11214594B2, “Antimicrobial peptide having synergistic antibacterial effect with antibiotics on multidrug resistant bacteria, and use thereof” (priority 2016, dated 2022)
# Read-outs that look alike come from different tables or passages of the source. Where a SMILES comes first, the peptide text is derived from it. [ ]: non-standard residue; d: D form.
# How the values were obtained:
# [1] = tested on: MDRAB 12035; assay: MIC of antibiotic during combined treatment with antimicrobial peptide; format: cell-based, Acinetobacter baumannii
# Method in brief: (§1)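 Antibiotic MIC came from antibiotic dilutions added to bacteria (2×10^6 CFU/ml, MH medium) already combined with peptide serially diluted 2:1 from its own MIC. Swapping the roles of the two agents gave the peptide MIC.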
# [2] = tested on: E. coli; format: cell-based, Escherichia coli; conditions: E. coli
# Method in brief: as §1
# [3] = tested on: MDREC 1229; format: cell-based, Escherichia coli
# Method in brief: as §1
# [4] = tested on: A. baumannii; assay: MIC of antimicrobial peptide during combined treatment with antibiotic; format: cell-based, Acinetobacter baumannii
# Method in brief: as §1
# [5] = tested on: MDRAB 12035; assay: as above; format: cell-based, Acinetobacter baumannii
# Method in brief: as §1
# [6] = peptide treatment concentration 2 μg/ml
# [7] = peptide treatment concentration 4 μg/ml
# [8] = peptide treatment concentration 6 μg/ml
# [9] = peptide treatment concentration 8 μg/ml
# [10] = peptide treatment concentration 16 μg/ml
# [11] = peptide treatment concentration 32 μg/ml
# [12] = peptide treatment concentration 64 μg/ml
# [13] = linezolid 64 μg/ml (Conc./MIC 1/8)
# [14] = linezolid 512 μg/ml (Conc./MIC 1)
# [15] = vancomycin 512 μg/ml (Conc./MIC 1/2)
# [16] = vancomycin 1024 μg/ml (Conc./MIC 1)
# [17] = erythromycin 4 μg/ml (Conc./MIC 1/8)
# [18] = erythromycin 8 μg/ml (Conc./MIC 1/4)
# [19] = erythromycin 16 μg/ml (Conc./MIC 1/2)
# [20] = erythromycin 32 μg/ml (Conc./MIC 1)
compound,measurement,setting,value
"CC[C@H](C)[C@H](NC(=O)[C@H](CCCCN)NC(=O)[C@H](Cc1c[nH]c2ccccc12)NC(=O)[C@@H](N)CCCNC(=N)N)C(=O)N[C@@H](Cc1ccccc1)C(=O)N[C@@H](CCCCN)C(=O)N[C@@H](CCCCN)C(=O)N[C@H](C(=O)N[C@H](CCCCN)C(=O)N[C@@H](CCCCN)C(=O)N[C@@H](CC(C)C)C(=O)N[C@@H](CC(C)C)C(=O)N[C@@H](Cc1c[nH]cn1)C(=O)N[C@@H](CCCCN)C(=O)N[C@@H](C)C(=O)N[C@@H](CCCCN)C(=O)N[C@@H](CCCCN)C(=O)N[C@@H](Cc1c[nH]c2ccccc12)C(N)=O)[C@@H](C)CC [PapMA-18, RWK IFK KIk KLL HKA KKW-NH2] (H-RWKIFKKI[dK]KLLHKAKKW-NH2; N-terminus assumed)",Linezolid MIC during combined treatment with peptide,[1]; [6],>128 µg/mL
same,Vancomycin MIC during combined treatment with peptide,[1]; [6],>128 µg/mL
same,Erythromycin MIC during combined treatment with peptide,[1]; [7],16 µg/mL
same,Linezolid MIC during combined treatment with peptide,[1]; [7],64 µg/mL
same,Vancomycin MIC during combined treatment with peptide,[1]; [7],128 µg/mL
same,Erythromycin MIC during combined treatment with peptide,[1]; [8],4 µg/mL
same,Linezolid MIC during combined treatment with peptide,[1]; [8],32 µg/mL
same,Vancomycin MIC during combined treatment with peptide,[1]; [8],32 µg/mL
same,Erythromycin MIC during combined treatment with peptide,[1]; [9],2 µg/mL
same,Linezolid MIC during combined treatment with peptide,[1]; [9],16 µg/mL
same,Vancomycin MIC during combined treatment with peptide,[1]; [9],16 µg/mL
same,Erythromycin MIC during combined treatment with peptide,[1]; [10],0.5 µg/mL
same,Linezolid MIC during combined treatment with peptide,[1]; [10],8 µg/mL
same,Vancomycin MIC during combined treatment with peptide,[1]; [10],16 µg/mL
same,Erythromycin MIC during combined treatment with peptide,[1]; [11],0 µg/mL
same,Linezolid MIC during combined treatment with peptide,[1]; [11],0 µg/mL
same,Vancomycin MIC during combined treatment with peptide,[1]; [11],0 µg/mL
same,Erythromycin MIC during combined treatment with peptide,[1]; [12],0 µg/mL
same,Linezolid MIC during combined treatment with peptide,[1]; [12],0 µg/mL
same,Vancomycin MIC during combined treatment with peptide,[1]; [12],0 µg/mL
same,Peptide MIC,[2]; with Erythromycin […] (Conc./MIC 1),0 µg/mL
same,Peptide MIC,[2]; with Linezolid […] (Conc./MIC 1),0 µg/mL
same,Peptide MIC,[2]; with Vancomycin 1024 μg/ml (Conc./MIC 1),0 µg/mL
same,Peptide MIC during treatment with antibiotic,[3]; erythromycin 32 μg/ml (Conc./MIC 1/8),2 µg/mL
same,Peptide MIC during treatment with antibiotic,[3]; erythromycin 64 μg/ml (Conc./MIC 1/4),2 µg/mL
same,Peptide MIC during treatment with antibiotic,[3]; erythromycin […] (Conc./MIC 1),0 µg/mL
same,Peptide MIC during treatment with antibiotic,[3]; erythromycin […] (Conc./MIC 1/2),2 µg/mL
same,Peptide MIC during treatment with antibiotic,[3]; [13],4 µg/mL
same,Peptide MIC during treatment with antibiotic,[3]; [14],0 µg/mL
same,Peptide MIC during treatment with antibiotic,[3]; linezolid […] (Conc./MIC 1/2),1 µg/mL
same,Peptide MIC during treatment with antibiotic,[3]; linezolid […] (Conc./MIC 1/4),4 µg/mL
same,Peptide MIC during treatment with antibiotic,[3]; [15],2 µg/mL
same,Peptide MIC during treatment with antibiotic,[3]; [16],1 µg/mL
same,Peptide MIC during treatment with antibiotic,[3]; vancomycin […] (Conc./MIC 1/4),4 µg/mL
same,Peptide MIC during treatment with antibiotic,[3]; vancomycin […] (Conc./MIC 1/8),8 µg/mL
same,Peptide MIC during treatment with antibiotic,[4]; [17],4 µg/mL
same,Peptide MIC during treatment with antibiotic,[4]; [18],4 µg/mL
same,Peptide MIC during treatment with antibiotic,[4]; [19],4 µg/mL
same,Peptide MIC during treatment with antibiotic,[4]; [20],0 µg/mL
same,Peptide MIC during treatment with antibiotic,[4]; linezolid 32 μg/ml (Conc./MIC 1/8),8 µg/mL
same,Peptide MIC during treatment with antibiotic,[4]; linezolid 64 μg/ml (Conc./MIC 1/4),4 µg/mL
same,Peptide MIC during treatment with antibiotic,[4]; linezolid […] (Conc./MIC 1),0 µg/mL
same,Peptide MIC during treatment with antibiotic,[4]; linezolid […] (Conc./MIC 1/2),2 µg/mL
same,Peptide MIC during treatment with antibiotic,[4]; [15],0.25 µg/mL
same,Peptide MIC during treatment with antibiotic,[4]; [16],0 µg/mL
same,Peptide MIC during treatment with antibiotic,[4]; vancomycin […] (Conc./MIC 1/4),0.5 µg/mL
same,Peptide MIC during treatment with antibiotic,[4]; vancomycin […] (Conc./MIC 1/8),4 µg/mL
same,Peptide MIC during treatment with erythromycin,[5]; [17],4 µg/mL
same,Peptide MIC during treatment with erythromycin,[5]; [18],4 µg/mL
same,Peptide MIC during treatment with erythromycin,[5]; [19],4 µg/mL
same,Peptide MIC during treatment with erythromycin,[5]; [20],0 µg/mL
same,Peptide MIC during treatment with linezolid,[5]; [13],4 µg/mL
same,Peptide MIC during treatment with linezolid,[5]; [14],0 µg/mL
same,Peptide MIC during treatment with linezolid,[5]; linezolid […] (Conc./MIC 1/2),1 µg/mL
same,Peptide MIC during treatment with linezolid,[5]; linezolid […] (Conc./MIC 1/4),4 µg/mL
same,Peptide MIC during treatment with vancomycin,[5]; [15],2 µg/mL
same,Peptide MIC during treatment with vancomycin,[5]; [16],1 µg/mL
same,Peptide MIC during treatment with vancomycin,[5]; vancomycin […] (Conc./MIC 1/4),4 µg/mL
same,Peptide MIC during treatment with vancomycin,[5]; vancomycin […] (Conc./MIC 1/8),4 µg/mL
